Values of other authors in US9119796B2, “Razor comprising a molded shaving aid composition comprising a pyrithione source” (The Gillette Company, priority 2011, dated 2015).

Test system: microbials
Conditions: soap bar composition with platelet ZPT compared with particulate ZPT (median about 0.70 microns, mean about 0.75 microns, thickness less than 0.6 microns); FIG. 1 of U.S. Ser. No. 13/036,889

[O-]n1ccccc1=S.[O-]n1ccccc1=S.[Zn+2] [platelet ZPT, zinc salt of 1-hydroxy-2-pyridinethione]
number of colony forming units (CFUs) that form on a substrate: reduces the number of colony forming units (CFUs)
